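Cultured in 96-well plates, cells were exposed to test compound for 48 hours across five concentrations. The concentration for 50% growth inhibition is given as GI50. TGI is the concentration that stops growth completely.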
Assays:
Assay in all cases: NCI tumour cell line growth inhibition, 48 h
A498 renal = tested on: A498 renal
CCRF-CEM leukemia = tested on: CCRF-CEM leukemia
HCC-2998 colon = tested on: HCC-2998 colon
HCT-15 colon = tested on: HCT-15 colon
K-562 leukemia = tested on: K-562 leukemia
MCF7 breast = tested on: MCF7 breast
SK-OV-3 ovarian = tested on: SK-OV-3 ovarian
SNB-75 CNS = tested on: SNB-75 CNS
MDA-N = tested on: MDA-N

| Compound | GI50 (A498 renal) | TGI (A498 renal) | GI50 (CCRF-CEM leukemia) | TGI (CCRF-CEM leukemia) | GI50 (HCC-2998 colon) | TGI (HCC-2998 colon) | GI50 (HCT-15 colon) | TGI (HCT-15 colon) | GI50 (K-562 leukemia) | TGI (K-562 leukemia) | GI50 (MCF7 breast) | TGI (MCF7 breast) | GI50 (SK-OV-3 ovarian) | TGI (SK-OV-3 ovarian) | GI50 (SNB-75 CNS) | TGI (SNB-75 CNS) | TGI (MDA-N) |
| --- | --- | --- | --- | --- | --- | --- | --- | --- | --- | --- | --- | --- | --- | --- | --- | --- | --- |
| COc1cccc(C2SC(C)C(=O)N2CCc2cccs2)c1 (stereo not given) | 1250 nM | 10.5 µM | 3.01 µM | 22.3 µM | 2930 nM | 12.3 µM | 2750 nM | 12.5 µM | 2810 nM | > 100 µM | 3020 nM | 12.7 µM | 2950 nM | 13.2 µM | 3200 nM | 15.7 µM | – |
| Cc1ccc(S(=O)(=O)N/N=C2/CCC(C(C)(C)C)CC2Br)cc1 (stereo not given) | – | > 100 µM | – | 64.2 µM | – | – | – | > 100 µM | – | 40.1 µM | – | 51.9 µM | – | > 100 µM | – | 87 µM | > 100 µM |
| COCC12CCC(OC)C34C5CC6(O)C(OC)CC(OC(C)=O)(C5C6OC(=O)c5ccccc5)C(C(OC)C13)C4N(C)C2 (stereo not given) | – | > 100 µM | – | > 100 µM | – | > 100 µM | – | > 100 µM | – | – | – | > 100 µM | – | > 100 µM | – | – | > 100 µM |
| CC12ON(P(=O)(c3ccccc3)c3ccccc3)C(C)(c3ccccc31)c1ccccc12 | – | – | – | > 100 µM | – | > 100 µM | – | > 100 µM | – | > 100 µM | – | – | – | > 100 µM | – | > 100 µM | > 100 µM |
| COP(=O)(O)C(N)Cc1c[nH]c2ccccc12 (stereo not given) | – | > 100 µM | – | > 100 µM | – | > 100 µM | – | > 100 µM | – | > 100 µM | – | > 100 µM | – | > 100 µM | – | – | > 100 µM |
| Clc1ccc(C2CC(c3cccc(Nc4ccncc4)c3)=NN2c2cc(Cl)cc(Cl)c2)cc1 (stereo not given) | – | – | 3.52 µM | > 100 µM | 1560 nM | 3.04 µM | 1770 nM | 3.45 µM | 2550 nM | 6.12 µM | 2050 nM | 4.73 µM | 1890 nM | 3.83 µM | 1400 nM | 2.93 µM | – |
| COc1cc(OC2OC(COC(=O)c3cc(O)c(O)c(O)c3)C(O)C(O)C2O)ccc1O (stereo not given) | – | > 100 µM | – | > 100 µM | – | > 100 µM | – | > 100 µM | – | > 100 µM | – | > 100 µM | – | – | – | > 100 µM | > 100 µM |
| CCOC(=O)C(=O)CC(=O)C1=C(c2ccccc2OC)CC(c2cccs2)=CC1=O | – | > 100 µM | – | > 100 µM | – | – | – | > 100 µM | – | > 100 µM | – | – | – | > 100 µM | – | 49.8 µM | > 100 µM |
| CC(C)(C)OC(=O)N1[C@@H]2Cc3ccc(N)cc3[C@@]1(C)c1ccccc12 | – | 79.6 µM | – | 64.9 µM | – | 47.2 µM | – | 32.9 µM | – | 62.6 µM | – | > 100 µM | – | > 100 µM | – | – | 45.3 µM |
| COc1ccc2c(c1)CCN1CCCc3ccccc3C21 (stereo not given) | – | > 100 µM | – | > 100 µM | – | 80.8 µM | – | > 100 µM | – | > 100 µM | – | > 100 µM | – | > 100 µM | – | 78.5 µM | – |
| CCCCCCCCCCCCCCCCCC(=O)Nc1ccn(C2CCC(COP(=O)(O)O)O2)c(=O)n1 (stereo not given) | – | > 100 µM | – | > 100 µM | – | > 100 µM | – | > 100 µM | – | > 100 µM | – | > 100 µM | – | > 100 µM | – | > 100 µM | – |
| COc1ccc(CNc2nc3cc(C(F)(F)F)ccc3nc2-c2ccccc2)cc1OC | – | – | – | > 100 µM | – | 45.9 µM | – | > 100 µM | – | > 100 µM | – | 42.5 µM | – | > 100 µM | – | > 100 µM | > 100 µM |
| O=C1C2=C(SCCS2)C(=O)c2c(Sc3ccc(Cl)cc3)c(Sc3ccc(Cl)cc3)c(Sc3ccc(Cl)cc3)c(Sc3ccc(Cl)cc3)c21 | – | 73.7 µM | – | 23.8 µM | – | > 100 µM | – | > 100 µM | – | – | – | > 100 µM | – | > 100 µM | – | > 100 µM | > 100 µM |
| O=[N+]([O-])c1cccc(Cl)c1Oc1ccc(S(=O)(=O)/N=C(\NO)Nc2ccc(Cl)cc2)cc1 | – | 28.2 µM | – | 29.7 µM | – | 24 µM | – | 33.8 µM | – | 33.3 µM | – | 32.2 µM | – | 31.8 µM | – | – | 26 µM |
| CCOC(=O)c1[nH]c2cccc3c2c1CC[C@H](NC(=O)C(F)(F)F)C3=O | – | > 100 µM | – | > 100 µM | – | > 100 µM | – | > 100 µM | – | > 100 µM | – | > 100 µM | – | – | – | 56.7 µM | > 100 µM |
| CCOc1ccc(/C=C2\NC(=S)N(/C=C3\C(=O)Oc4ccccc4C3=O)C2=O)cc1 | – | – | – | 40.4 µM | – | > 100 µM | – | 49.9 µM | – | – | – | 63.1 µM | – | 38.8 µM | – | 61.6 µM | – |
| COC1=C2C=[N+](C)C3C(=C2C=CC1OC)Cc1cc2c(cc13)OCO2 (stereo not given) | – | > 100 µM | – | > 100 µM | – | – | – | 35.3 µM | – | 42.5 µM | – | 21.5 µM | – | 28.3 µM | – | 28 µM | 23.6 µM |
